Assay results taken from patent US5684151A, “1-arylsulphonyl, arylcarbonyl and 1-arylphosphonyl-3-phenyl-1,4,5,6-tetrahydropyridazines” (priority 1995, dated 1997).
pIC50: −log10 of the molar value. Like-named read-outs stand apart in the source and are kept apart here.

Legend:
[1] = target: T1, progestin receptor from rabbit uterus (Oryctolagus cuniculus, UniProt P06186); assay: Progestin receptor binding (3H-R5020 displacement); conditions: rabbit uterine cytosol, 4° C., 18 h, read-out: IC50: Binding affinity for the progestin receptor from rabbit uterus
T1 construct: Cytosolic progestin receptor were obtained by mixing rabbit uterine tissue with a Tris buffer; from tissue; host or cells: rabbit uterus cytosol
T1 sequence (P06186 whole entry): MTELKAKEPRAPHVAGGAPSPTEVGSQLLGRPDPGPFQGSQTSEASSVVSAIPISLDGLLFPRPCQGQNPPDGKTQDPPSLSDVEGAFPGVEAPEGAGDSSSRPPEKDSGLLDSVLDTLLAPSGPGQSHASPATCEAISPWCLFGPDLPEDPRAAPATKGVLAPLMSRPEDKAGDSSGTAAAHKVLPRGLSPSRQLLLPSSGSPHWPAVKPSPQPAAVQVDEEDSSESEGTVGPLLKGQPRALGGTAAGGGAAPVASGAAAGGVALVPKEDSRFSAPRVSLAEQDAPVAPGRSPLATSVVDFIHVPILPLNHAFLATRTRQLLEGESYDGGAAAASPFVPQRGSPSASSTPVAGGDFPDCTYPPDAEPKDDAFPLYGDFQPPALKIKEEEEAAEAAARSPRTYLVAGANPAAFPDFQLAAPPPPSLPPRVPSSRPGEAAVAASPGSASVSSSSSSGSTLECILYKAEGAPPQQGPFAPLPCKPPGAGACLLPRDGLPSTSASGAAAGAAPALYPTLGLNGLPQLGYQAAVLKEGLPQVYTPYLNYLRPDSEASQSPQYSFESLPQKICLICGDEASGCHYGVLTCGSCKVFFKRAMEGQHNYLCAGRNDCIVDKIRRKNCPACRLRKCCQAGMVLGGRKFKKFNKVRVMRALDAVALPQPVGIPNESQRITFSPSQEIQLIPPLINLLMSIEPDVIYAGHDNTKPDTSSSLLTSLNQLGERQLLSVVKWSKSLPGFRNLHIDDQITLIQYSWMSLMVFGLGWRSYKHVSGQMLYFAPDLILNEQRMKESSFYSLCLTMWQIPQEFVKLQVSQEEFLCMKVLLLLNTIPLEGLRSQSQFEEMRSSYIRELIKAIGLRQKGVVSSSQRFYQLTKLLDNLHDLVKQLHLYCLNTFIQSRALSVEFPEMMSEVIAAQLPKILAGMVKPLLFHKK
Procedure: A progestin initiates a biological response by first binding to a progestin receptor. Affinity for progestin receptors was determined by measuring the ability of compounds to displace a progestin radioligand from those receptors in vitro. Cytosolic progestin receptor were obtained by mixing rabbit uterine tissue with a Tris buffer [0.1M Tris-Hcl, 1 mM Na2 EDTA, 1 mM dithiothreotol, 1 mM sodium molybdate, 1% glycerol, pH 7.4]. The tissue/buffer mixture was homogenized under ice-cold conditions. The homogenate was then centrifuged and the supernatant (cytosol preparation) was decanted and stored at -70° C. and thawed prior to use. The competitive binding assay was performed by mixing ^3 H-R5020, a progestin radioligand, with cytosol preparation and various concentrations of test compounds (prepared in DMSO with a final 5% DMSO concentration). This mixture was then incubated at 4° C. for about 18 hours. Non-specific binding was determined using an unlabelled ligand in excess. After the incubation period, the radioligand bound to receptor was separated from free radioligand using dextran-coated charcoal. The amount of bound radioligand was then determined by liquid scintillation counting. The data were expressed as the concentration of test compound that displaced 50% of the radioligand from the receptor (IC50)
Aspects of the application used in this procedure are described in the following: J. L. McGuire et al., Biochemistry 13, 319, 1974.

[2] = test system: mouse (MC3T3-E1) and human (TE-85) osteoblast-line cells; assay type: cell-based
Source text: Compounds of the present invention have utility to treat osteoporosis through enhancement of bone calcification rather than traditional approaches which generally involve inhibition of bone degeneration or resorption. The compounds of the present invention have been evaluated as stimulators of proliferation of osteoblast cell and chick calivaria bone organ culture which is predictive of enhancement of bone mass and bone formation in vivo.
The action of select compounds to stimulate osteoblast growth was measured in culture by estimating the rate of DNA synthesis by the rate of ^3 H-thymidine incorporation into DNA. Only cells undergoing mitosis synthesized new DNA and thus only these cells incorporated the radiolabelled DNA-specific thymidine. The stimulation of the proliferation and differentiation of bone-forming cells, osteoblasts, was a prerequisite for an increase in bone formation and bone mass. The ability of agents to increase osteoblast proliferation and differentiation can be predicted by their action on cultured osteoblast-line cells in vitro. In this test, mouse (MC3T3-E1) and human (TE-85) osteoblast-line cells (American Type Tissue Culture Collection, #CRL 1543, Rockville, Md. cloned by Sudo et al., Koriyama, Japan) were cultured in vitro and the effect of various agents were tested on osteoblast cell proliferation. Cells were harvested from large culture flasks where they were allowed to grow to near confluency using trypsin. The cells were plated into 96 well culture plates, 1600 cells in 100 μL per well in Dulbencos Modified Eagle's Medium (DMEM) with 25 mM HEPES buffer, L-glutamine (584 mg/L); D-glucose (4.5 g/L) supplemented with fetal bovine sera (10%); penicillin (100 units/mL) and streptomycin (100 mcg/mL); sodium pyruvate (10 μM final concentration). The cells were allowed to plate overnight in DMEM containing 10% fetal bovine sera at 37° C. in an atmosphere of 5% CO2/95% air. Following their placement into 96 well culture plates all the osteoblast-line cells, either the MC3T3-E1 or the TE-85 cell lines, were allowed an additional 24 hours preincubation period in media containing only 0.1% fetal bovine sera.
Twenty hours later, a 20 μL aliquot of media containing 0.4 μCi of ^3 H-thymidine was added to each culture well. The cells were then incubated an additional 4 hours. The incubation was terminated by aspirating the media and washing with HBSS (Hank's Balanced Salt Solution). The cells were then treated with 100 μL of 0.5% trypsin and 5.3 mM EDTA for 30 minutes at room temperature. The cells were then aspirated onto glass fiber filter and washed with water. The radioactivity on the filters was quantified by liquid scintillation spectroscopy. The rate of ^3 H-thymidine incorporation into DNA was then utilized as an index of cell proliferation. The results are shown in Table 13 expressed as % times control where the control is 100%. […]

SMILES	pIC50 [1]	Osteoblast Cell Proliferation, 3H-thymidine incorporation vs control (100%) ([2]; 10^-7) [%]	Osteoblast Cell Proliferation, 3H-thymidine incorporation vs control (100%) ([2]; 10^-8) [%]	Osteoblast Cell Proliferation, 3H-thymidine incorporation vs control (100%) ([2]; 10^-9) [%]	Osteoblast Cell Proliferation, 3H-thymidine incorporation vs control (100%) ([2]; 10^-10) [%]	Osteoblast Cell Proliferation, 3H-thymidine incorporation vs control (100%) ([2]; 10^-6) [%]
O=S(=O)(c1ccc(I)cc1)N1CCCC(c2ccc(Cl)cc2)=N1 [Compound 16]	8.38					
O=S(=O)(c1ccc(F)cc1)N1CCCC(c2ccc(Cl)cc2)=N1 [Compound 17]	7.32					
O=S(=O)(c1ccc(F)cc1)N1CCCC(c2ccc(F)cc2)=N1 [Compound 18]	6.69					
O=S(=O)(c1ccc(Br)cc1)N1CCCC(c2ccc(F)cc2)=N1 [Compound 19]	7.21					
O=S(=O)(c1ccc(I)cc1)N1CCCC(c2ccc(F)cc2)=N1 [Compound 20]	7.25					
O=[N+]([O-])c1ccc(S(=O)(=O)N2CCCC(c3ccc(F)cc3)=N2)c([N+](=O)[O-])c1 [Compound 23]	5.52					
O=[N+]([O-])c1ccccc1S(=O)(=O)N1CCCC(c2ccc(F)cc2)=N1 [Compound 24]	6.51					
COC(=O)c1ccccc1S(=O)(=O)N1CCCC(c2ccc(F)cc2)=N1 [Compound 26]	6.35					
O=[N+]([O-])c1ccccc1S(=O)(=O)N1CCCC(c2ccc(Cl)cc2)=N1 [Compound 27]	7.19					
O=[N+]([O-])c1ccc(S(=O)(=O)N2CCCC(c3ccc(Cl)cc3)=N2)c([N+](=O)[O-])c1 [Compound 28]	5.50					
COC(=O)c1ccccc1S(=O)(=O)N1CCCC(c2ccc(Cl)cc2)=N1 [Compound 29]	6.61					
O=S(=O)(c1ccc(Cl)c(Cl)c1)N1CCCC(c2ccc(Cl)cc2)=N1 [Compound 30]	7.66					
O=S(=O)(c1cc(Cl)cc(Cl)c1)N1CCCC(c2ccc(Cl)cc2)=N1 [Compound 31]	8.40					
O=S(=O)(c1ccc(C(F)(F)F)cc1)N1CCCC(c2ccc(Cl)cc2)=N1 [Compound 36]	7.94					
O=S(=O)(c1ccccc1)N1CCCC(c2ccc(Cl)cc2)=N1 [Compound 37]	7.89					
O=S(=O)(c1ccc(Cl)cc1)N1CCCC(c2ccccc2)=N1 [Compound 48]	6.58					
O=S(=O)(c1ccc(Br)cc1)N1CCCC(c2ccccc2)=N1 [Compound 49]	6.90					

SMILES	pIC50 [1]	Osteoblast Cell Proliferation, 3H-thymidine incorporation vs control (100%) ([2]; 10^-7) [%]	Osteoblast Cell Proliferation, 3H-thymidine incorporation vs control (100%) ([2]; 10^-8) [%]	Osteoblast Cell Proliferation, 3H-thymidine incorporation vs control (100%) ([2]; 10^-9) [%]	Osteoblast Cell Proliferation, 3H-thymidine incorporation vs control (100%) ([2]; 10^-10) [%]	Osteoblast Cell Proliferation, 3H-thymidine incorporation vs control (100%) ([2]; 10^-6) [%]
O=S(=O)(c1ccc(I)cc1)N1CCCC(c2ccccc2)=N1 [Compound 50]	6.50					
O=S(=O)(c1cc(Cl)ccc1Cl)N1CCCC(c2ccccc2)=N1 [Compound 52]	7.38					
CCCCc1ccc(C2=NN(C(=O)c3ccc(Cl)c(Cl)c3)CCC2)cc1 [Compound 231]		115	103	145	133	
O=C(c1cc(Cl)cc(Cl)c1)N1CCCC(c2ccccc2)=N1 [Compound 232]		110	115	115	121	
CC1(C)CC(c2ccccc2)=NN(C(=O)c2ccc(Cl)c(Cl)c2)C1 [Compound 234]		95	84	84	111	
Fc1ccc(C(=S)N2CCCC(c3ccc(Cl)c(Cl)c3)=N2)cc1F [Compound 236, 3-(3,4-Dichlorophenyl)-1-(3,4-difluorothiobenzoyl)-1,4,5,6-tetrahydropyridazine]		109	102	106	115	
S=C(c1ccc(Cl)c(Cl)c1)N1CCCC(c2ccccc2)=N1 [Compound 237, 1-(3,4-dichlorothiobenzoyl)-3-phenyl-1,4,5,6-tetrahydropyridazine]		113	113	110	119	
S=C(c1ccc(Cl)c(Cl)c1)N1CCCC(c2ccc(Cl)c(Cl)c2)=N1 [Compound 243]		118	92	96	89	
S=C(c1cc(Cl)cc(Cl)c1)N1CCCC(c2ccc(Cl)c(Cl)c2)=N1 [Compound 244]		119	134	129	144	
S=C(c1cc(Cl)cc(Cl)c1)N1CCCC(c2ccccc2)=N1 [Compound 247]		118	122	122	129	
CCCCc1ccc(C2=NN(P(=O)(OC)c3ccccc3)CCC2)cc1 (stereo not shown) [Compound 251]		104	111	91	111	109
COP(=O)(c1ccccc1)N1CCCC(c2ccc(F)cc2)=N1 (stereo not shown) [Compound 258]		107	108	107	98	107
CCOP(=O)(c1ccccc1)N1CCCC(c2ccc(F)cc2)=N1 (stereo not shown) [Compound 259]		96	102	121	106	116
COP(=O)(c1ccccc1)N1CCCC(c2ccc(Br)cc2)=N1 (stereo not shown) [Compound 260]		115	105	99	90	100
Nc1c(Br)cc(C2=NN(C(=O)c3ccc(Cl)c(Cl)c3)CCC2)cc1Br [Compound 265, (3-4-Amino-3,5-dibromophenyl)-1-(3,4-dichlorobenzoyl)-1,4,5,6-tetrahydropyridazine]		110	112	112	115	
CS(=O)(=O)c1ccc(S(=O)(=O)N2CCCC(c3ccc(Cl)c(Cl)c3)=N2)cc1 [Compound 275, 3-(3,4-Dichlorophenyl)-1-(4-methylsulfonylbenzenesulfonyl)-1,4,5,6-tetrahydropyridazine]		145	153	128	136	
